In brackets after ≈: the same amount, converted by molar mass. Like-named read-outs stand apart in the source and are kept apart here. Values belong to the compound of their own block, whether it stands above or below them.
Experiments:
OATP1B1 [1] = biological target: T1, OATP1B1 (Homo sapiens, UniProt Q9Y6L6); parameters: FLAG; expressed in transfected cells; details: cited from earlier work
T1 sequence (Q9Y6L6 1-691): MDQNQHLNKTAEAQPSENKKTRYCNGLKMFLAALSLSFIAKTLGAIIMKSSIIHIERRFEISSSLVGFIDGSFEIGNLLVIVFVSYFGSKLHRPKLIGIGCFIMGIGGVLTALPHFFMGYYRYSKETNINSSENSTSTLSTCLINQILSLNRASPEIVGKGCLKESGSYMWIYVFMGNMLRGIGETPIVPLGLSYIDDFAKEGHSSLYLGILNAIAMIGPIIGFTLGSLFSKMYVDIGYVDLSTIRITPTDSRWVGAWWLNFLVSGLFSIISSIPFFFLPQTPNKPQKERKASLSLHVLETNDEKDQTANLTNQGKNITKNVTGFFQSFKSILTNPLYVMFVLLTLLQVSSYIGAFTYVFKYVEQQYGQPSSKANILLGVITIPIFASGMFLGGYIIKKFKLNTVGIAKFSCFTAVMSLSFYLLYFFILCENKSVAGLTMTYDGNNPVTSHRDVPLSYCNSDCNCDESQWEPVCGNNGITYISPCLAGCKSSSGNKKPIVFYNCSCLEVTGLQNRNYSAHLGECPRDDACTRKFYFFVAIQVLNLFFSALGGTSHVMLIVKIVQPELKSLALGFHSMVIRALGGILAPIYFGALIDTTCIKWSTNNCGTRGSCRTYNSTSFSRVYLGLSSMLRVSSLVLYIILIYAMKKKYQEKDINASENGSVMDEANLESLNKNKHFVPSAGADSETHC

[2] = test system: OATP1B1 c. 521CC genotype; details: subjects with OATP1B1 c. 521CC genotype; cited from earlier work
OATP1B1/3 = details: humans, cited from earlier work
[3] = steady state, read-out: Cmax, plasma, cited from earlier work
OATP1B1 [4] = biological target: T1, OATP1B1; assay: cell-based; details: for OATP1B1-mediated transport after preincubation: washed, substrate without inhibitor; for IC50: [3H]-E217βG 1 µM, 2 min
Experimental: (§1) HEK293 stable cell lines expressing FLAG-tagged OATP1B1 (HEK293-FLAG-OATP1B1) or FLAG-tagged OATP1B3 (HEK293-FLAG-OATP1B3) have been published previously. Both HEK293 stable cell lines were cultured in DMEM culture media supplemented with 9% FBS (abbreviated as FBS–DMEM), antibiotic antimycotic, and 600 µg/mL G418 as published previously.
(§2) HEK293-FLAG-OATP1B1 and HEK293-FLAG-OATP1B3 cells (less than 40 passages) were seeded in poly-L-lysine coated 24-well plates at a density of 1.5 × 10^5 cells per well and allowed to grow for 48 h until confluent before the transport studies. [^3H]-E217βG (1 µM, 2 min) and [^3H]-CCK-8 (1 µM, 3 min) were used as substrates for OATP1B1 and OATP1B3 in HEK293-FLAG-OATP1B1 and HEK293-FLAG-OATP1B3 cells, respectively. […] After preincubation, cells were washed three times with HBSS buffer and incubated with HBSS buffer containing substrate, in the […] of vehicle control or inhibitor. […] At the end of substrate incubation, cells were washed three times with ice-cold HBSS buffer and lysed in PBS containing 0.5% Triton X-100. Liquid scintillation counting was determined and normalized to the protein concentration, after correcting for any nonspecific binding in the poly-L-lysine-coated blank plates, as published previously.
(§3) (1) E=Bottom+Top−Bottom/(1+C/IC50) where E is the remaining substrate transport at a given inhibitor concentration (C).

[5] = human plasma; cited from earlier work
OATP1B3 [6] = biological target: T2, OATP1B3 (Homo sapiens, UniProt Q9NPD5); assay: Prediction of OATP1B3-mediated DDI using the static R-value model; parameters: FLAG; expressed in transfected cells; details: predicted AUC ratio
T2 sequence (Q9NPD5 1-702): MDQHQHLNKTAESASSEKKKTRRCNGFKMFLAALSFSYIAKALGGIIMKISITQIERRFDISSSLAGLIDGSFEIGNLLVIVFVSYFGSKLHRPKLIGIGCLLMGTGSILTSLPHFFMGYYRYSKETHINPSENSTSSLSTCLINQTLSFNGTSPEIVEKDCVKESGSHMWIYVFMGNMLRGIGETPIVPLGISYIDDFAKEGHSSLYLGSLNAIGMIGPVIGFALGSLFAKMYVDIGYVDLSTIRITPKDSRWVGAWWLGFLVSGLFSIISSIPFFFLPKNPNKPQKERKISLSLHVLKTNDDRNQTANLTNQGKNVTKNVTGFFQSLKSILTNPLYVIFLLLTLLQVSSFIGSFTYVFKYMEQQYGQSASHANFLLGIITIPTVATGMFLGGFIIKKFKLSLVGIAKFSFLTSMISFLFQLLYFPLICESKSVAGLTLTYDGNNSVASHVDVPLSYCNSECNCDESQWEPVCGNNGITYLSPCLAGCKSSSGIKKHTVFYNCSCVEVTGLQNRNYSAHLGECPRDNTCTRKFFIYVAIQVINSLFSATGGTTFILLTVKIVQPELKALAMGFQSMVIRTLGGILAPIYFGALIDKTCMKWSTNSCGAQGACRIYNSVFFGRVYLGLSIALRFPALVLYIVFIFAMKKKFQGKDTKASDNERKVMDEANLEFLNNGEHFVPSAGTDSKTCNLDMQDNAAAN
Experimental: (§4) The R-value, which represents the predicted AUC ratio of the substrate drug in the presence versus absence of an inhibitor drug, was calculated based on Equation (2), following the US-FDA final guidance with the parameters summarized in Table 1.
(§5) The fa is the fraction absorbed. […] Fg is the fraction that escaped gut metabolism (Fg). The ka is the absorption rate constant. […] Qh is the hepatic blood flow rate (1500 mL/min). RB is the blood-to-plasma concentration ratio. […] (3) Iin,max=Imax+faFg×ka×Dose/Qh×RB

OATP1B1 [7] = biological target: T1, OATP1B1; assay: Prediction of OATP1B1-mediated DDI using the static R-value model; parameters: FLAG; expressed in transfected cells; details: predicted AUC ratio
Experimental: as §4, §5

OATP1B3 [8] = biological target: T2, OATP1B3
Experimental: as §1, §2, §3

[9] = Maximum aqueous soluble concentration; assay type: physicochemical; details: aqueous solution (not further specified)
[10] = Nicardipine pharmacokinetic parameters for R-value determination; details: Estimated based on Equation (3)
Experimental: The fa is the fraction absorbed. […] Fg is the fraction that escaped gut metabolism (Fg). The ka is the absorption rate constant. […] Qh is the hepatic blood flow rate (1500 mL/min) [32]. RB is the blood-to-plasma concentration ratio. […] RB of 0.63 was used as a worst-case scenario.

[11] = from co-incubation IC50, FBS-DMEM
[12] = from pre + co-incubation IC50, HBSS
[13] = from pre + co-incubation IC50, FBS-DMEM

SMILES: CCOC(=O)C1=C(COCCN)NC(C)=C(C(=O)OC)C1c1ccccc1Cl (stereo not drawn) [amlodipine]
predicted DDI potential based on IC50 values against OATP1B1 (OATP1B1 [1]; IC50 determined without inhibitor-preincubation step): no DDI potential

SMILES: CC[C@H](C)C(=O)O[C@H]1C[C@H](O)C=C2C=C[C@H](C)[C@H](CC[C@@H](O)C[C@@H](O)CC(=O)O)[C@H]21 [pravastatin]
increased AUC, fold of the reference [2]: 1.9 fold

SMILES: COCC(=O)O[C@]1(CCN(C)CCCc2nc3ccccc3[nH]2)CCc2cc(F)ccc2[C@@H]1C(C)C [Mibefradil, mibefradil]
AUC Ratio (OATP1B1/3; AUC of atorvastatin on coadministration, ref 10 in text, ref 8 in Table 3): 4.43
AUC Ratio (OATP1B1/3; AUC of pravastatin on coadministration of mibefradil): 1.32

effect of preincubation on OATP1B1-mediated transport (OATP1B1 [4]; 0.5 µM, 10 min preincubation in HBSS buffer): no effect
OATP1B1-mediated transport after preincubation (OATP1B1 [4]; 0.5 µM, 30 min preincubation in HBSS buffer): 0.78 ± 0.04 fold of the control
OATP1B1-mediated transport after preincubation (OATP1B1 [4]; 0.5 µM, 1 h preincubation in HBSS buffer): 0.82 ± 0.04 fold of the control
effect of preincubation on OATP1B1-mediated transport (OATP1B1 [4]; 0.5 µM, any preincubation duration (10 min–1 h) in FBS-containing medium): no effect
effect of preincubation on OATP1B1-mediated transport (OATP1B1 [4]; 2 and 4 µM, HBSS buffer and FBS-containing medium, all preincubation time points): significantly reduced
IC50 (OATP1B1 [4]; IC50, Co-incubation only (no preincubation), FBS-DMEM row): 2.8 ± 2.44 µM
IC50 (OATP1B1 [4]; IC50, Co-incubation only (no preincubation), HBSS row): 3.55 ± 2.46 µM
IC50 (OATP1B1 [4]; IC50, Pre + co-incubation, 30 min preincubation in FBS-DMEM (9% FBS)): 1.57 ± 1.4 µM
IC50 (OATP1B1 [4]; IC50, Pre + co-incubation, 30 min preincubation in protein-free HBSS buffer): 0.98 ± 0.26 µM
R (20 mg) (OATP1B3 [6]; [11]): 1.0
R (20 mg) (OATP1B3 [6]; from co-incubation IC50, HBSS): 1.0
R (20 mg) (OATP1B3 [6]; [12]): 1.1
R (30 mg) (OATP1B3 [6]; from co-incubation IC50, HBSS): 1.0
R (30 mg) (OATP1B3 [6]; [12]): 1.2
R (40 mg) (OATP1B3 [6]; from co-incubation IC50, HBSS): 1.0
R (40 mg) (OATP1B3 [6]; [12]): 1.3
R (20 mg) (OATP1B1 [7]; [11]): 1.1
R (20 mg) (OATP1B1 [7]; from co-incubation IC50, HBSS): 1.1
R (20 mg) (OATP1B1 [7]; [13]): 1.1
R (20 mg) (OATP1B1 [7]; [12]): 1.2
R (30 mg) (OATP1B1 [7]; [11]): 1.1
R (30 mg) (OATP1B1 [7]; from co-incubation IC50, HBSS): 1.1
R (30 mg) (OATP1B1 [7]; [13]): 1.2
R (30 mg) (OATP1B1 [7]; [12]): 1.3
R (40 mg) (OATP1B1 [7]; [11]): 1.2
R (40 mg) (OATP1B1 [7]; from co-incubation IC50, HBSS): 1.1
R (40 mg) (OATP1B1 [7]; [13]): 1.3
R (40 mg) (OATP1B1 [7]; [12]): 1.4
effect of preincubation on OATP1B3-mediated transport (OATP1B3 [8]; 0.5 µM, any treatment condition): did not significantly affect
effect of preincubation on OATP1B3-mediated transport (OATP1B3 [8]; FBS-containing medium, 4 µM for 30 min and 2 or 4 µM for 1 h): small, yet significant, reductions
solubility [9]: 4 µM (≈ 1.92 µg/mL)
Iin, max (estimated total maximum plasma concentration at the inlet to the liver) [10]: 8.46 µM
SMILES: COC(=O)C1=C(C)NC(C)=C(C(=O)OCCN(C)Cc2ccccc2)C1c1cccc([N+](=O)[O-])c1 (stereo not drawn) [nicardipine]
inhibition of OATP1B1-mediated transport (OATP1B1 [1]; 20 µM): 65%
Cmax ([3]; 20 mg 3 times a day): 0.07 µM
Cmax ([3]; 30 mg 3 times a day): 0.17 µM
Cmax ([3]; 40 mg 3 times a day): 0.26 µM
fu (Fraction unbound in the plasma) [5]: 0.05 [29]

SMILES: COC(=O)C1=C(C)NC(C)=C(C(=O)OCC(C)C)C1c1ccccc1[N+](=O)[O-] (stereo not drawn) [Nisoldipine, nisoldipine]
AUC Ratio (OATP1B1/3; AUC of telmisartan on coadministration): 2.32
